{"source": "patent US11053204B2", "about": "“Pyrimidinyloxy benzene derivatives as herbicides” (FMC Corporation, priority 2015, dated 2021)", "type_in_all_cases": "in vivo", "key": {"[1]": {"test_system": "wheat (winter wheat, Triticum aestivum)", "assay": "Test C preemergence, plant response rating", "conditions": "Preemergence", "from_the_text": "(§1) Seeds of plant species selected from blackgrass (Alopecurus myosuroides), ryegrass, Italian (Italian ryegrass, Lolium multiflorum), wheat (winter wheat, Triticum aestivum), galium (catchweed bedstraw, Galium aparine), corn (Zea mays), crabgrass, large (large crabgrass, Digitaria sanguinalis), foxtail, giant (giant foxtail, Setaria faberii), johnsongrass (Sorghum halepense), lambsquarters (Chenopodium album), morningglory (Ipomoea coccinea), nutsedge, yellow (yellow nutsedge, Cyperus esculentus), pigweed (Amaranthus retroflexus), ragweed (common ragweed, Ambrosia elatior), soybean (Glycine max), barnyardgrass (Echinochloa crus-galli), oilseed rape (Brassica napus), pigweed, palmer (palmer pigweed, Amaranthus palmeri), waterhemp (common waterhemp, Amaranthus rudis), velvetleaf (Abutilon theophrasti), kochia (Kochia scoparia), surinam grass (Brachiaria decumbens), nightshade (eastern black nightshade, Solanum ptycanthum), wild poinsettia (Euphorbia heterophylla), windgrass (Apera spica-venti), and oat, wild (wild oat Avena fatua), were planted into a blend of loam soil and sand or a silt loam soil and treated preemergence with test chemicals formulated in a non-phytotoxic solvent mixture which included a surfactant.\n(§2) At the same time, plants selected from these crop and weed species and also chickweed (common chickweed, Stellaria media), buckwheat, wild (wild buckwheat, Polygonum convolvulus), wild mustard (Sinapis arvensis), field poppy (Papaver rhoeas), field violet (Viola arvensis), geranium, cutleaf (cutleaf geranium, Geranium dissectum), Canada thistle (Cirsium arvense), and speedwell (bird's-eye speedwell, Veronica persica), were planted in pots containing Sunshine Redi-Earth® planting medium comprising spaghnum peat moss, vermiculite, starter nutrients and dolomitic limestone and treated with postemergence applications of test chemicals formulated in the same manner. Plants ranged in height from 2 to 18 cm (1- to 4-leaf stage) for postemergence treatments. Treated plants and controls were maintained in a greenhouse for 13 to 15 d, after which time all species were compared to controls and visually evaluated. Plant response ratings, summarized in Table C, are based on a scale of 0 to 100 where 0 is no effect and 100 is complete control. A dash (-) response means no test result."}, "[2]": {"test_system": "velvetleaf (Abutilon theophrasti)", "assay": "Test C preemergence, plant response rating", "conditions": "Preemergence", "from_the_text": "as §1, §2"}, "[3]": {"test_system": "crabgrass, large (large crabgrass, Digitaria sanguinalis)", "assay": "Test C preemergence, plant response rating", "conditions": "Preemergence", "from_the_text": "as §1, §2"}, "[4]": {"test_system": "waterhemp (common waterhemp, Amaranthus rudis)", "assay": "Test C preemergence, plant response rating", "conditions": "Preemergence", "from_the_text": "as §1, §2"}, "[5]": {"test_system": "nutsedge, yellow (yellow nutsedge, Cyperus esculentus)", "assay": "Test C preemergence, plant response rating", "conditions": "Preemergence", "from_the_text": "as §1, §2"}, "[6]": {"test_system": "lambsquarters (Chenopodium album)", "assay": "Test C preemergence, plant response rating", "conditions": "Preemergence", "from_the_text": "as §1, §2"}, "[7]": {"test_system": "blackgrass (Alopecurus myosuroides)", "assay": "Test C preemergence, plant response rating", "conditions": "Preemergence", "from_the_text": "as §1, §2"}, "[8]": {"test_system": "ryegrass, Italian (Italian ryegrass, Lolium multiflorum)", "assay": "Test C preemergence, plant response rating", "conditions": "Preemergence", "from_the_text": "as §1, §2"}, "[9]": {"test_system": "ragweed (common ragweed, Ambrosia elatior)", "assay": "Test C preemergence, plant response rating", "conditions": "Preemergence", "from_the_text": "as §1, §2"}, "soybean (Glycine max)": {"test_system": "soybean (Glycine max)", "assay": "Test C preemergence, plant response rating", "conditions": "Preemergence", "from_the_text": "as §1, §2"}, "[10]": {"test_system": "oilseed rape (Brassica napus)", "assay": "Test C preemergence, plant response rating", "conditions": "Preemergence", "from_the_text": "as §1, §2"}, "[11]": {"test_system": "morningglory (Ipomoea coccinea)", "assay": "Test C preemergence, plant response rating", "conditions": "Preemergence", "from_the_text": "as §1, §2"}, "[12]": {"test_system": "foxtail, giant (giant foxtail, Setaria faberii)", "assay": "Test C preemergence, plant response rating", "conditions": "Preemergence", "from_the_text": "as §1, §2"}, "corn (Zea mays)": {"test_system": "corn (Zea mays)", "assay": "Test C preemergence, plant response rating", "conditions": "Preemergence", "from_the_text": "as §1, §2"}, "[13]": {"test_system": "blackgrass (Alopecurus myosuroides)", "assay": "Test A postemergence, visual injury rating", "conditions": "0 is no effect, 100 is complete control", "how_it_was_run": "(§3)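 Compounds in non-phytotoxic solvent with surfactant applied as soil spray preemergence, or postemergence to plants 2-10 cm at one- to two-leaf stage, in loam/sand. After approximately 10 days in greenhouse, injury rated visually versus untreated controls, 0 (no effect) to 100 (complete control).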"}, "[14]": {"test_system": "galium (catchweed bedstraw, Galium aparine)", "assay": "Test A postemergence, visual injury rating", "conditions": "0 is no effect, 100 is complete control", "how_it_was_run": "as §3"}, "[15]": {"test_system": "barnyardgrass (Echinochloa crus-galli)", "assay": "Test A postemergence, visual injury rating", "conditions": "0 is no effect, 100 is complete control", "how_it_was_run": "as §3"}}, "data": [{"smiles": "N#Cc1cccc(Oc2ncc(Cl)cn2)c1CCCC(F)(F)F", "note": "[Compound 72]", "values": [{"measurement": "Plant response rating, Wheat", "setting": "[1]; 125 g ai/ha, scale of 0 to 100", "value": 80}, {"measurement": "Plant response rating, Wheat", "setting": "[1]; 16 g ai/ha, scale 0 to 100", "value": 0}, {"measurement": "Plant response rating, Wheat", "setting": "[1]; 31 g ai/ha, scale 0 to 100", "value": 0}, {"measurement": "Plant response rating, Wheat", "setting": "[1]; 62 g ai/ha, scale 0 to 100", "value": 30}, {"measurement": "Plant response rating, Velvetleaf", "setting": "[2]; 125 g ai/ha, scale of 0 to 100", "value": 100}, {"measurement": "Plant response rating, Velvetleaf", "setting": "[2]; 16 g ai/ha, scale 0 to 100", "value": 10}, {"measurement": "Plant response rating, Velvetleaf", "setting": "[2]; 31 g ai/ha, scale 0 to 100", "value": 60}, {"measurement": "Plant response rating, Velvetleaf", "setting": "[2]; 62 g ai/ha, scale 0 to 100", "value": 55}, {"measurement": "Plant response rating, Crabgrass, Large", "setting": "[3]; 62 g ai/ha, scale of 0 to 100", "value": 100}, {"measurement": "Plant response rating, Crabgrass, Large", "setting": "[3]; 125 g ai/ha, scale of 0 to 100", "value": 100}, {"measurement": "Plant response rating, Crabgrass, Large", "setting": "[3]; 16 g ai/ha, scale 0 to 100", "value": 100}, {"measurement": "Plant response rating, Crabgrass, Large", "setting": "[3]; 31 g ai/ha, scale 0 to 100", "value": 100}, {"measurement": "Plant response rating, Waterhemp", "setting": "[4]; 125 g ai/ha, scale of 0 to 100", "value": 100}, {"measurement": "Plant response rating, Waterhemp", "setting": "[4]; 16 g ai/ha, scale 0 to 100", "value": 100}, {"measurement": "Plant response rating, Waterhemp", "setting": "[4]; 31 g ai/ha, scale 0 to 100", "value": 100}, {"measurement": "Plant response rating, Waterhemp", "setting": "[4]; 62 g ai/ha, scale 0 to 100", "value": 100}, {"measurement": "Plant response rating, Nutsedge, Yellow", "setting": "[5]; 125 g ai/ha, scale of 0 to 100", "value": 0}, {"measurement": "Plant response rating, Nutsedge, Yellow", "setting": "[5]; 16 g ai/ha, scale 0 to 100", "value": 0}, {"measurement": "Plant response rating, Nutsedge, Yellow", "setting": "[5]; 31 g ai/ha, scale 0 to 100", "value": 0}, {"measurement": "Plant response rating, Nutsedge, Yellow", "setting": "[5]; 62 g ai/ha, scale 0 to 100", "value": 0}, {"measurement": "Plant response rating, Lambsquarters", "setting": "[6]; 125 g ai/ha, scale of 0 to 100", "value": 100}, {"measurement": "Plant response rating, Lambsquarters", "setting": "[6]; 16 g ai/ha, scale 0 to 100", "value": 65}, {"measurement": "Plant response rating, Lambsquarters", "setting": "[6]; 31 g ai/ha, scale 0 to 100", "value": 80}, {"measurement": "Plant response rating, Lambsquarters", "setting": "[6]; 62 g ai/ha, scale 0 to 100", "value": 90}, {"measurement": "Plant response rating, Blackgrass", "setting": "[7]; 62 g ai/ha, scale of 0 to 100", "value": 98}, {"measurement": "Plant response rating, Blackgrass", "setting": "[7]; 125 g ai/ha, scale of 0 to 100", "value": 100}, {"measurement": "Plant response rating, Blackgrass", "setting": "[7]; 16 g ai/ha, scale 0 to 100", "value": 60}, {"measurement": "Plant response rating, Blackgrass", "setting": "[7]; 31 g ai/ha, scale 0 to 100", "value": 98}, {"measurement": "Plant response rating, Ryegrass, Italian", "setting": "[8]; 125 g ai/ha, scale of 0 to 100", "value": 100}, {"measurement": "Plant response rating, Ryegrass, Italian", "setting": "[8]; 16 g ai/ha, scale 0 to 100", "value": 10}, {"measurement": "Plant response rating, Ryegrass, Italian", "setting": "[8]; 31 g ai/ha, scale 0 to 100", "value": 45}, {"measurement": "Plant response rating, Ryegrass, Italian", "setting": "[8]; 62 g ai/ha, scale 0 to 100", "value": 45}, {"measurement": "Plant response rating, Ragweed", "setting": "[9]; 125 g ai/ha, scale of 0 to 100", "value": 45}, {"measurement": "Plant response rating, Ragweed", "setting": "[9]; 16 g ai/ha, scale 0 to 100", "value": 0}, {"measurement": "Plant response rating, Ragweed", "setting": "[9]; 31 g ai/ha, scale 0 to 100", "value": 0}, {"measurement": "Plant response rating, Ragweed", "setting": "[9]; 62 g ai/ha, scale 0 to 100", "value": 40}, {"measurement": "Plant response rating, Soybean", "setting": "soybean (Glycine max); 125 g ai/ha, scale of 0 to 100", "value": 90}, {"measurement": "Plant response rating, Soybean", "setting": "soybean (Glycine max); 16 g ai/ha, scale 0 to 100", "value": 0}, {"measurement": "Plant response rating, Soybean", "setting": "soybean (Glycine max); 31 g ai/ha, scale 0 to 100", "value": 0}, {"measurement": "Plant response rating, Soybean", "setting": "soybean (Glycine max); 62 g ai/ha, scale 0 to 100", "value": 15}, {"measurement": "Plant response rating, Oilseed Rape", "setting": "[10]; 125 g ai/ha, scale of 0 to 100", "value": 100}, {"measurement": "Plant response rating, Oilseed Rape", "setting": "[10]; 16 g ai/ha, scale 0 to 100", "value": 5}, {"measurement": "Plant response rating, Oilseed Rape", "setting": "[10]; 31 g ai/ha, scale 0 to 100", "value": 80}, {"measurement": "Plant response rating, Oilseed Rape", "setting": "[10]; 62 g ai/ha, scale 0 to 100", "value": 80}, {"measurement": "Plant response rating, Morningglory", "setting": "[11]; 125 g ai/ha, scale of 0 to 100", "value": 95}, {"measurement": "Plant response rating, Morningglory", "setting": "[11]; 16 g ai/ha, scale 0 to 100", "value": 10}, {"measurement": "Plant response rating, Morningglory", "setting": "[11]; 31 g ai/ha, scale 0 to 100", "value": 40}, {"measurement": "Plant response rating, Morningglory", "setting": "[11]; 62 g ai/ha, scale 0 to 100", "value": 55}, {"measurement": "Plant response rating, Foxtail, Giant", "setting": "[12]; 62 g ai/ha, scale of 0 to 100", "value": 75}, {"measurement": "Plant response rating, Foxtail, Giant", "setting": "[12]; 125 g ai/ha, scale of 0 to 100", "value": 100}, {"measurement": "Plant response rating, Foxtail, Giant", "setting": "[12]; 16 g ai/ha, scale 0 to 100", "value": 55}, {"measurement": "Plant response rating, Foxtail, Giant", "setting": "[12]; 31 g ai/ha, scale 0 to 100", "value": 80}, {"measurement": "Plant response rating, Corn", "setting": "corn (Zea mays); 62 g ai/ha, scale of 0 to 100", "value": 20}, {"measurement": "Plant response rating, Corn", "setting": "corn (Zea mays); 125 g ai/ha, scale of 0 to 100", "value": 60}, {"measurement": "Plant response rating, Corn", "setting": "corn (Zea mays); 16 g ai/ha, scale 0 to 100", "value": 5}, {"measurement": "Plant response rating, Corn", "setting": "corn (Zea mays); 31 g ai/ha, scale 0 to 100", "value": 20}, {"measurement": "Blackgrass plant response rating (0 to 100 scale)", "setting": "[13]; 125 g ai/ha", "value": 30}, {"measurement": "Blackgrass plant response rating (0 to 100 scale)", "setting": "[13]; 500 g ai/ha", "value": 50}, {"measurement": "Galium plant response rating (0 to 100 scale)", "setting": "[14]; 125 g ai/ha", "value": 80}, {"measurement": "Galium plant response rating (0 to 100 scale)", "setting": "[14]; 500 g ai/ha", "value": 100}, {"measurement": "Barnyardgrass plant response rating (0 to 100 scale)", "setting": "[15]; 125 g ai/ha", "value": 80}, {"measurement": "Barnyardgrass plant response rating (0 to 100 scale)", "setting": "[15]; 500 g ai/ha", "value": 100}]}]}
